Data: ChEMBL document CHEMBL3885861, “Open TG-GATES”

Species: Rattus norvegicus
Test: Open TG-GATES - Regimen: Single
Format: toxicity, organism-based, Sprague-Dawley
Design: regimen Single, gender Male, age 6 weeks
Conditions: in vivo, po, route gavage; for APTT / Bas / Eos / Fbg / Hb / Ht / Lym / MCH / MCHC / MCV / Mono / Neu / PT / Plat / RBC / Ret / WBC: tissue Blood; for KIDNEY_L / KIDNEY_R / KIDNEY_TOTAL: tissue Kidney; for LIVER: tissue Liver; for A/G / ALP / ALT / AST / BUN / CRE / Ca / Cl / DBIL / GLC / IP / K / LDH / Na / PL / RALB / TBIL / TC / TG / TP / gamma-GTP: tissue Plasma
[1] = 0 mg/kg, 3 h, dose level Control
[2] = 0 mg/kg, 6 h, dose level Control
[3] = 0 mg/kg, 9 h, dose level Control
[4] = 0 mg/kg, 24 h, dose level Control

## Cc1ccc(C)c(OCCCC(C)(C)C(=O)O)c1 [GEMFIBROZIL]
[1]
  TERMINAL_BW: 223.7 g
  APTT: 16.9 s
  Bas: 0%
  Eos: 0.6%
  Fbg: 276.4 mg/dL
  Hb: 14 g/dL
  Ht: 40.2%
  Lym: 81.2%
  MCH: 22.6 pg
  MCHC: 34.9%
  MCV: 64.7 fL
  Mono: 2.8%
  Neu: 14.6%
  PT: 12.3 s
  Plat: 124.4 x10_4/uL
  RBC: 621.6 x10_4/ul
  Ret: 8%
  WBC: 76.9 x10_2/uL
  KIDNEY_L: 1 g
  KIDNEY_R: 0.9 g
  KIDNEY_TOTAL: 1.9 g
  LIVER: 9.8 g
  A/G: 0.9
  ALP: 1456 IU/L
  ALT: 45.2 IU/L
  AST: 71.2 IU/L
  BUN: 12.6 mg/dL
  CRE: 0.2 mg/dL
  Ca: 11.3 mg/dL
  Cl: 105 meq/L
  DBIL: 0.046 mg/dL
  GLC: 180.6 mg/dL
  IP: 10.4 mg/dL
  K: 4.2 meq/L
  LDH: 74 IU/L
  Na: 140.2 meq/L
  PL: 179.2 mg/dL
  RALB: 2.6 g/dL
  TBIL: 0.052 mg/dL
  TC: 86.4 mg/dL
  TG: 155.8 mg/dL
  TP: 5.6 g/dL
  gamma-GTP: 1 IU/L
[2]
  TERMINAL_BW: 221.6 g
  APTT: 16.7 s
  Bas: 0%
  Eos: 0.8%
  Fbg: 299 mg/dL
  Hb: 13.9 g/dL
  Ht: 40.6%
  Lym: 75.4%
  MCH: 21.4 pg
  MCHC: 34.3%
  MCV: 62.5 fL
  Mono: 3.6%
  Neu: 19.2%
  PT: 12.1 s
  Plat: 127 x10_4/uL
  RBC: 649.8 x10_4/ul
  Ret: 7.3%
  WBC: 71.6 x10_2/uL
  KIDNEY_L: 0.9 g
  KIDNEY_R: 0.9 g
  KIDNEY_TOTAL: 1.8 g
  LIVER: 9.1 g
  A/G: 0.9
  ALP: 1398 IU/L
  ALT: 43 IU/L
  AST: 70.6 IU/L
  BUN: 9.6 mg/dL
  CRE: 0.2 mg/dL
  Ca: 11.1 mg/dL
  Cl: 107.4 meq/L
  DBIL: 0.024 mg/dL
  GLC: 183 mg/dL
  IP: 10.9 mg/dL
  K: 4.3 meq/L
  LDH: 60.8 IU/L
  Na: 141.6 meq/L
  PL: 156 mg/dL
  RALB: 2.7 g/dL
  TBIL: 0.046 mg/dL
  TC: 86.2 mg/dL
  TG: 71.2 mg/dL
  TP: 5.6 g/dL
  gamma-GTP: 1.4 IU/L
[3]
  TERMINAL_BW: 223.1 g
  APTT: 15.5 s
  Bas: 0%
  Eos: 1%
  Fbg: 302.2 mg/dL
  Hb: 14 g/dL
  Ht: 41%
  Lym: 80%
  MCH: 21.6 pg
  MCHC: 34.1%
  MCV: 63.4 fL
  Mono: 2.6%
  Neu: 15.8%
  PT: 12.3 s
  Plat: 110.9 x10_4/uL
  RBC: 646.6 x10_4/ul
  Ret: 7.6%
  WBC: 69.8 x10_2/uL
  KIDNEY_L: 0.9 g
  KIDNEY_R: 0.9 g
  KIDNEY_TOTAL: 1.8 g
  LIVER: 8.6 g
  A/G: 0.9
  ALP: 1255.2 IU/L
  ALT: 36.6 IU/L
  AST: 65.4 IU/L
  BUN: 12 mg/dL
  CRE: 0.2 mg/dL
  Ca: 11.1 mg/dL
  Cl: 107 meq/L
  DBIL: 0.02 mg/dL
  GLC: 194.2 mg/dL
  IP: 11.9 mg/dL
  K: 4 meq/L
  LDH: 58 IU/L
  Na: 143.4 meq/L
  PL: 150.2 mg/dL
  RALB: 2.6 g/dL
  TBIL: 0.046 mg/dL
  TC: 82.2 mg/dL
  TG: 60.4 mg/dL
  TP: 5.4 g/dL
  gamma-GTP: 1.2 IU/L
[4]
  TERMINAL_BW: 226.6 g
  APTT: 14.7 s
  Bas: 0%
  Eos: 0.8%
  Fbg: 286 mg/dL
  Hb: 13.5 g/dL
  Ht: 38.9%
  Lym: 78.2%
  MCH: 21.7 pg
  MCHC: 34.7%
  MCV: 62.6 fL
  Mono: 2.6%
  Neu: 17.8%
  PT: 12 s
  Plat: 117.7 x10_4/uL
  RBC: 621.8 x10_4/ul
  Ret: 6.6%
  WBC: 87.1 x10_2/uL
  KIDNEY_L: 1 g
  KIDNEY_R: 0.9 g
  KIDNEY_TOTAL: 1.9 g
  LIVER: 10.2 g
  A/G: 1
  ALP: 1725.4 IU/L
  ALT: 48 IU/L
  AST: 74.6 IU/L
  BUN: 16.2 mg/dL
  CRE: 0.2 mg/dL
  Ca: 11.4 mg/dL
  Cl: 104.8 meq/L
  DBIL: 0.024 mg/dL
  GLC: 187 mg/dL
  IP: 8.7 mg/dL
  K: 4.1 meq/L
  LDH: 79.8 IU/L
  Na: 142 meq/L
  PL: 144.6 mg/dL
  RALB: 2.7 g/dL
  TBIL: 0.034 mg/dL
  TC: 78 mg/dL
  TG: 75 mg/dL
  TP: 5.6 g/dL
  gamma-GTP: 1 IU/L
30 mg/kg, 3 h, dose level Low
  TERMINAL_BW: 219.6 g
  APTT: 16 s
  Bas: 0%
  Eos: 0.6%
  Fbg: 282.6 mg/dL
  Hb: 14.2 g/dL
  Ht: 41%
  Lym: 79.2%
  MCH: 22.1 pg
  MCHC: 34.7%
  MCV: 63.6 fL
  Mono: 2.8%
  Neu: 16.6%
  PT: 12.4 s
  Plat: 113.5 x10_4/uL
  RBC: 644.2 x10_4/ul
  Ret: 7%
  WBC: 92.7 x10_2/uL
  KIDNEY_L: 0.9 g
  KIDNEY_R: 0.9 g
  KIDNEY_TOTAL: 1.8 g
  LIVER: 9.1 g
  A/G: 0.9
  ALP: 1552.4 IU/L
  ALT: 48.6 IU/L
  AST: 74.6 IU/L
  BUN: 11.6 mg/dL
  CRE: 0.2 mg/dL
  Ca: 11.2 mg/dL
  Cl: 106.8 meq/L
  DBIL: 0.046 mg/dL
  GLC: 181 mg/dL
  IP: 9.7 mg/dL
  K: 4 meq/L
  LDH: 60.8 IU/L
  Na: 141.6 meq/L
  PL: 156.2 mg/dL
  RALB: 2.6 g/dL
  TBIL: 0.048 mg/dL
  TC: 70 mg/dL
  TG: 141.4 mg/dL
  TP: 5.5 g/dL
  gamma-GTP: 1 IU/L
30 mg/kg, 6 h, dose level Low
  TERMINAL_BW: 221.2 g
  APTT: 15.2 s
  Bas: 0%
  Eos: 0.6%
  Fbg: 335.6 mg/dL
  Hb: 14.3 g/dL
  Ht: 41.1%
  Lym: 78.6%
  MCH: 22.1 pg
  MCHC: 34.9%
  MCV: 63.4 fL
  Mono: 2.4%
  Neu: 17.6%
  PT: 12.3 s
  Plat: 122 x10_4/uL
  RBC: 649.2 x10_4/ul
  Ret: 6.8%
  WBC: 75.7 x10_2/uL
  KIDNEY_L: 1 g
  KIDNEY_R: 0.9 g
  KIDNEY_TOTAL: 1.9 g
  LIVER: 9.2 g
  A/G: 0.9
  ALP: 1429.6 IU/L
  ALT: 41 IU/L
  AST: 75 IU/L
  BUN: 10.4 mg/dL
  CRE: 0.2 mg/dL
  Ca: 11.3 mg/dL
  Cl: 107.2 meq/L
  DBIL: 0.044 mg/dL
  GLC: 188 mg/dL
  IP: 10.4 mg/dL
  K: 4.2 meq/L
  LDH: 60.6 IU/L
  Na: 142.2 meq/L
  PL: 150.4 mg/dL
  RALB: 2.7 g/dL
  TBIL: 0.054 mg/dL
  TC: 77.2 mg/dL
  TG: 90.2 mg/dL
  TP: 5.6 g/dL
  gamma-GTP: 1.6 IU/L
30 mg/kg, 9 h, dose level Low
  TERMINAL_BW: 224 g
  APTT: 15 s
  Bas: 0%
  Eos: 0.8%
  Fbg: 313 mg/dL
  Hb: 13.8 g/dL
  Ht: 40.2%
  Lym: 76.8%
  MCH: 21.3 pg
  MCHC: 34.3%
  MCV: 62 fL
  Mono: 3.4%
  Neu: 18%
  PT: 12 s
  Plat: 106.6 x10_4/uL
  RBC: 649.2 x10_4/ul
  Ret: 7.1%
  WBC: 68.1 x10_2/uL
  KIDNEY_L: 0.9 g
  KIDNEY_R: 0.9 g
  KIDNEY_TOTAL: 1.9 g
  LIVER: 8.6 g
  A/G: 0.9
  ALP: 1676.4 IU/L
  ALT: 38 IU/L
  AST: 69.2 IU/L
  BUN: 11.8 mg/dL
  CRE: 0.2 mg/dL
  Ca: 10.9 mg/dL
  Cl: 107 meq/L
  DBIL: 0.046 mg/dL
  GLC: 189.2 mg/dL
  IP: 11.3 mg/dL
  K: 3.8 meq/L
  LDH: 52.8 IU/L
  Na: 143.4 meq/L
  PL: 147 mg/dL
  RALB: 2.6 g/dL
  TBIL: 0.05 mg/dL
  TC: 78.6 mg/dL
  TG: 66.4 mg/dL
  TP: 5.4 g/dL
  gamma-GTP: 1 IU/L
30 mg/kg, 24 h, dose level Low
  TERMINAL_BW: 227.1 g
  APTT: 14.5 s
  Bas: 0%
  Eos: 1%
  Fbg: 284.8 mg/dL
  Hb: 13.8 g/dL
  Ht: 39.8%
  Lym: 75.6%
  MCH: 22.3 pg
  MCHC: 34.7%
  MCV: 64.3 fL
  Mono: 2.4%
  Neu: 20.6%
  PT: 12.1 s
  Plat: 112.3 x10_4/uL
  RBC: 620 x10_4/ul
  Ret: 7.1%
  WBC: 70.3 x10_2/uL
  KIDNEY_L: 1 g
  KIDNEY_R: 1 g
  KIDNEY_TOTAL: 2 g
  LIVER: 10.5 g
  A/G: 0.9
  ALP: 1729.6 IU/L
  ALT: 47.4 IU/L
  AST: 70.4 IU/L
  BUN: 16 mg/dL
  CRE: 0.2 mg/dL
  Ca: 11.3 mg/dL
  Cl: 106.4 meq/L
  DBIL: 0.044 mg/dL
  GLC: 191 mg/dL
  IP: 7.7 mg/dL
  K: 4.5 meq/L
  LDH: 63.6 IU/L
  Na: 142.2 meq/L
  PL: 137.6 mg/dL
  RALB: 2.7 g/dL
  TBIL: 0.036 mg/dL
  TC: 68.6 mg/dL
  TG: 100.6 mg/dL
  TP: 5.6 g/dL
  gamma-GTP: 0.8 IU/L
